Values joined by “and” are separate entries in the source; they are usually repeats but may differ in a detail not shown here. Equal entries are not always repeated.

Test [1] concerns the target T1, human recombinant adrenergic α2A receptor (Homo sapiens, UniProt P08913).
T1 construct: expressed in transfected cells; host or cells: insect Sf9 cells
T1 sequence (P08913 1-465): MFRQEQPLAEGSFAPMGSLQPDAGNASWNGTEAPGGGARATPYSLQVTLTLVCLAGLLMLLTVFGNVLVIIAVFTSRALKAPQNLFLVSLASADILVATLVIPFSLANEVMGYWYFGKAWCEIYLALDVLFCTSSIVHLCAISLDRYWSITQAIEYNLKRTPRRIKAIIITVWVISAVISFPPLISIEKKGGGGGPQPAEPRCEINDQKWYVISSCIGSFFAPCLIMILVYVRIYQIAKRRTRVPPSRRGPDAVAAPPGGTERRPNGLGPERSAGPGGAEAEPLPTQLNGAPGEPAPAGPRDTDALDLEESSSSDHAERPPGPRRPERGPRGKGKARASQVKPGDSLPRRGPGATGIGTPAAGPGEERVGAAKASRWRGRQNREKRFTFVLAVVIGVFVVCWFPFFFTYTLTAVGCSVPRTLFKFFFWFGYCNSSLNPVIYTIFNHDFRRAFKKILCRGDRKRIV
In words: Adrenergic α2A radioligand binding ([3H]MK-912). To be noted: 1 μM; for inhibition at 1 µM: read-out: Adrenergic α2A, inhibition of ligand binding (1 μM). As to the method:
To evaluate in radioligand binding assays the activity of compounds of the invention, human recombinant adrenergic α2A receptor expressed in insect Sf9 cells (Uhlen S et al. J Pharmacol Exp Ther. 271:1558, 1994) in a modified Tris-HCl buffer (50 mM Tris-HCl, pH 7.4, 12.5 mM MgCl2, 2 mM EDTA) was used. Compounds of invention were incubated with 1 nM [^3H]MK-912 for 60 minutes at 25° C. MK912 is (2S-trans)-1,3,4,5′,6,6′,7,12b-octahydro-1′,3′-dimethyl-spiro[2H-benzofuro[2,3-a]quinolizine-2,4′(1′H) -pyrimidin]-2′(3′H)-one hydrochloride Non-specific binding was estimated in the presence of 10 μM WB-4101 (2-(2,6-Dimethoxyphenoxyethyl)aminomethyl-1,4-benzodioxane hydrochloride). Receptor proteins were filtered and washed, the filters were then counted to determine [^3H]MK-912 specifically bound. Compounds were screened at 1 μM or lower, using 1% DMSO as vehicle. Biochemical assay results are presented as the percent inhibition of specific binding in Table 3.

The target in test [2] is T2, human recombinant dopamine D2L receptor (Homo sapiens, UniProt P14416).
T2 construct: expressed in transfected cells; host or cells: CHO cells
T2 sequence (P14416 whole entry): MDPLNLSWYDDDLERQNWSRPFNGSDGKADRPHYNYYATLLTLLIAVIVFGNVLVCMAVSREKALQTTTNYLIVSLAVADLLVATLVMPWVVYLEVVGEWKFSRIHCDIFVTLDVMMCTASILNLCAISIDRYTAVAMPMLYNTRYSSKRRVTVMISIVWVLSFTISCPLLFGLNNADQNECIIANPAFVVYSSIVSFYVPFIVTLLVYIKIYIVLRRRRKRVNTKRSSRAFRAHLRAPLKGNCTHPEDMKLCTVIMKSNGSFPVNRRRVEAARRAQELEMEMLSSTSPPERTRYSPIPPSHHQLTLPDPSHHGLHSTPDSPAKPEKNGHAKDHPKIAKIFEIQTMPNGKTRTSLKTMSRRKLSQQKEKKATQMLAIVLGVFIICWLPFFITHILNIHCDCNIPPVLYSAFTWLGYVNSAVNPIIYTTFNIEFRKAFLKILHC
In words: Dopamine D2L radioligand binding ([3H]Spiperone). To be noted: read-out: Dopamine (1 μM) D2L, inhibition of ligand binding. The method, then: To evaluate in radioligand binding assays the activity of compounds of the invention, human recombinant dopamine D2L receptor expressed in Chinese hamster ovary (CHO) cells (Grandy, D. K. et al. Proc. Natl. Acad. Sci. USA. 86:9762, 1989; Hayes, G. et al., Mol. Endocrinol. 6:920, 1992) in a modified Tris-HCl buffer (50 mM Tris-HCl, pH 7.4, 1.4 mM Ascorbic Acid, 0.001% BSA, 150 mM NaCl) was used. Compounds of the invention were incubated with 0.16 nM [^3H]Spiperone for 120 minutes at 25° C. Non-specific binding was estimated in the presence of 10 μM Haloperidol. Receptor proteins were filtered and washed, the filters were then counted to determine [^3H]Spiperone specifically bound. Compounds were screened at 1 μM or lower, using 1% DMSO as vehicle. Biochemical assay results are presented as the percent inhibition of specific binding in Table 3.

Test [3] concerns the target T3, human recombinant serotonin (5-Hydroxytryptamine) 5-HT2A receptor (Homo sapiens, UniProt P28223).
T3 construct: expressed in transfected cells; host or cells: CHO-K1 cells
In words: Serotonin 5-HT2A radioligand binding ([3H]Ketanserin). To be noted: for inhibition at 1 µM: read-out: Serotonin 5-HT2A, inhibition of ligand binding (1 μM). As to the method: To evaluate in radioligand binding assays the activity of compounds of the invention, human recombinant serotonin (5-Hydroxytryptamine) 5-HT2A receptor expressed in Chinese hamster ovary (CHO-K1) cells (Bonhaus, D. W. et al. Br. J. Pharmacol. 115:622, 1995; Saucier, C. and Albert, P. R., J. Neurochem. 68:1998, 1997) in a 50 mM Tris-HCl buffer, pH 7.4, was used. Compounds of the invention were incubated with 0.5 nM [^3H]Ketanserin for 60 minutes at 25° C. Non-specific binding was estimated in the presence of 1 μM Mianserin. Receptor proteins were filtered and washed, the filters were then counted to determine [^3H]Ketanserin specifically bound. Compounds were screened at 1 μM or lower, using 1% DMSO as vehicle. Biochemical assay results are presented as the percent inhibition of specific binding in Table 4.

Test [4] addresses T4, human recombinant serotonin (5-Hydroxytryptamine) 5-HT6 receptor (Homo sapiens, UniProt P50406).
T4 construct: expressed in transfected cells; host or cells: human HeLa cells
In words: Serotonin 5-HT6 radioligand binding ([3H]LSD). To be noted: for inhibition at 1 µM: read-out: Serotonin 5-HT6, inhibition of ligand binding (1 μM). As to the method:
To evaluate in radioligand binding assays the activity of compounds of the invention, human recombinant serotonin (5-Hydroxytryptamine) 5-HT6 receptor expressed in human HeLa cells (Monsma, F. J. Jr. et al., Mol. Pharmacol. 43:320, 1993) in a modified Tris-HCl buffer (50 mM Tris-HCl, pH 7.4, 150 mM NaCl, 2 mM Ascorbic Acid, 0.001% BSA) was used. Compounds of the invention were incubated with 1.5 nM [3H]Lysergic acid diethylamide (LSD) for 120 minutes at 37° C. Non-specific binding was estimated in the presence of 5 μM Serotonin (5-HT). Receptor proteins were filtered and washed, the filters were then counted to determine [3H]LSD specifically bound. Compounds were screened at 1 μM or lower, using 1% DMSO as vehicle. Biochemical assay results are presented as the percent inhibition of specific binding in Table 4.

T3 sequence (P28223 whole entry): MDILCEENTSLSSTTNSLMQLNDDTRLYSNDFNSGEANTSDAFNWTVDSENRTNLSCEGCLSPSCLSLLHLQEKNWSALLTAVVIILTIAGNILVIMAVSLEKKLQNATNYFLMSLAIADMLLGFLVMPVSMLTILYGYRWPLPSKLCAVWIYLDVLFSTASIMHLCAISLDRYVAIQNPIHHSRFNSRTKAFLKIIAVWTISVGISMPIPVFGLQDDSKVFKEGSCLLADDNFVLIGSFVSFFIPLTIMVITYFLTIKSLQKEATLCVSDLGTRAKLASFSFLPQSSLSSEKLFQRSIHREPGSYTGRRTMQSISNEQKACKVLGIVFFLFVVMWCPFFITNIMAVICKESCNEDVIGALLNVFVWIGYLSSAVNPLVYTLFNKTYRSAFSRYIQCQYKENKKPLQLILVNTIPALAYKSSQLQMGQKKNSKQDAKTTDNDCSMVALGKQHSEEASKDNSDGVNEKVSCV
T4 sequence (P50406 whole entry): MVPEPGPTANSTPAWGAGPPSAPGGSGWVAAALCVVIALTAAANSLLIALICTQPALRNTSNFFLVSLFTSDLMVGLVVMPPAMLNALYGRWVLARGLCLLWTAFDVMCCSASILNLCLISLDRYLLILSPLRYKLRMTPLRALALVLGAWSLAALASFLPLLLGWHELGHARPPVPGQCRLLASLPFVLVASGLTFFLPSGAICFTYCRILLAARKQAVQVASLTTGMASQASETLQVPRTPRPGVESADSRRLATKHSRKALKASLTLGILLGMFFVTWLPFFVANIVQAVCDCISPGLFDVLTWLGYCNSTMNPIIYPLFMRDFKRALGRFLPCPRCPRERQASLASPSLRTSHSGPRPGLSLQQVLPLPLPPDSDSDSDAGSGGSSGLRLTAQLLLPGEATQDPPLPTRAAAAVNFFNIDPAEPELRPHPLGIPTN

On to `CN1C2CCC1c1c(n(C#Cc3ccc(F)cc3)c3ccc(Cl)cc13)C2` (stereo not drawn) [Compound 138], for which the inhibition at 1 µM in test [1] is 95%; in test [2] it was 42%; in test [3], 98%; in test [4] it was 45%.

For `CN1C2CCC1c1c(n(CCC(=O)N3CCS(=O)(=O)CC3)c3ccc(Cl)cc13)C2` (stereo not drawn) [Compound 11], the inhibition at 1 µM in test [1] is -10%; in test [2], 2%; in test [3], -8%; in test [4], -16%.

In the case of `Cc1ccc(C(O)Cn2c3c(c4cc(Cl)ccc42)C2CCC(C3)N2C)cn1` (stereo not drawn) [Compound 52], the inhibition at 1 µM worked out at 46% in test [1], 10% in test [2], 21% in test [3] and 16% in test [4].

Take `COc1ccc(CCn2c3c(c4cc(C)ccc42)C2CCC(C3)N2C)cc1` (stereo not drawn) [Compound 83]: the inhibition at 1 µM in test [1] came to 77%; in test [2], 12%; in test [3], 71%; in test [4], 23%.

As for `C/C(=C\n1c2c(c3cc(Cl)ccc31)C1CCC(C2)N1C)c1ccc(F)cc1` (stereo not drawn) [Compound 123], the inhibition at 1 µM in test [1] is 95%; in test [2] it was 80%; in test [3], 97%; in test [4], 98%.

Consider `Cc1ccc2c(c1)c1c(n2CCCc2ccc(Cl)cc2)CC2CCC1N2C` (stereo not drawn) [Compound 85], for which the inhibition at 1 µM in test [1] was 73%; in test [2], -2%; in test [3], 95%; in test [4], 52%.

With `CN1C2CCC1c1c(n(CCC(=O)N3CCNC(=O)C3)c3ccc(Cl)cc13)C2` (stereo not drawn) [Compound 3], the inhibition at 1 µM was 8% in test [1], -3% in test [2], 3% in test [3] and 3% in test [4].

Take `Cc1ccc2c(c1)c1c(n2CCc2cncc(Cl)c2)CC2CCC1N2C` (stereo not drawn) [Compound 88]: the inhibition at 1 µM in test [1] was 32%; in test [2], 4%; in test [3] it was 55%; in test [4], 25%.

Turning to `CN1C2CCC1c1c(n(CCC#N)c3ccc(Cl)cc13)C2` (stereo not drawn) [Compound 107], the inhibition at 1 µM was 42% in test [1], -5% in test [2], 5% in test [3] and -3% in test [4].

For `CN1C2CCC1c1c(n(CCCc3ccc(Cl)cc3)c3ccc(Cl)cc13)C2` (stereo not drawn) [Compound 39], the inhibition at 1 µM in test [1] worked out at 68%; in test [2], 2%; in test [3] it was 87%; in test [4] it was 24%.

Take `CN1C2CCC1c1c(n(CCCc3ccc(C(F)(F)F)nc3)c3ccc(Cl)cc13)C2` (stereo not drawn) [Compound 37]: the inhibition at 1 µM in test [1] came to 10%; in test [2], 2%; in test [3], 23%; in test [4], 22%.

With `Cc1ccc2c(c1)c1c(n2CCc2cccnc2)CC2CCC1N2C` (stereo not drawn) [Compound 86], the inhibition at 1 µM in test [1] stood at 63%; in test [2] it was 4%; in test [3], 64%; in test [4], 60%.

As for `CN1C2CCC1c1c(n(CC(=O)c3ccccc3)c3ccc(Cl)cc13)C2` (stereo not drawn) [Compound 110], the inhibition at 1 µM in test [1] is 48%; in test [2], 14%; in test [3], 83%; in test [4], 48%.

For `Cc1cncc(CCn2c3c(c4cc(C)ccc42)C2CCC(C3)N2C)c1` (stereo not drawn) [Compound 90], the inhibition at 1 µM is 26% in test [1], -4% in test [2], 30% in test [3] and 6% in test [4].

For the molecule `Cc1ccc2c(c1)c1c(n2CCc2ccc(C(F)(F)F)nc2)CC2CCC1N2C` (stereo not drawn) [Compound 71], in test [1], the “Adrenergic α2A, inhibition of ligand binding (1 μM)” value is listed as 48.0%. Further, the values for the inhibition at 1 µM in test [1], in test [2] and in test [3] were 28%, -2% and 22%, respectively. Also, the “Serotonin 5-HT2A, inhibition of ligand binding (1 μM)” value in test [3] (1 µM) amounted to 34.0%. Moreover, the “Serotonin 5-HT6, inhibition of ligand binding (1 μM)” value in test [4] (1 µM) is 8.0/ % and 2.0%.

Regarding `CN1C2CCC1c1c(n(CCC(=O)N3CCSCC3)c3ccc(Cl)cc13)C2` (stereo not drawn) [Compound 12], the inhibition at 1 µM in test [1] was 0%; in test [2], -4%; in test [3] it was 10%; in test [4], -1%.

`CN1C2CCC1c1c(n(CCc3cccnc3)c3ccc(Cl)cc13)C2` (stereo not drawn) [Compound 80]: the inhibition at 1 µM was 21% in test [1], -3% in test [2], 33% in test [3] and 6% in test [4].

In the case of `C/C(=C/n1c2c(c3ccccc31)[C@@H]1CC[C@H](C2)N1C)c1ccc(F)cc1` [Compound 121], the inhibition at 1 µM in test [1] amounted to 55%; in test [2], 19%; in test [3] it was 98%; in test [4], 65%.

For the molecule `Cc1ccc2c(c1)c1c(n2CCc2cnc(C)nc2)CC2CCC1N2C` (stereo not drawn) [Compound 81], the inhibition at 1 µM in test [1] is -5%; in test [2] it was 9%; in test [3], -12%; in test [4], 12%.

For the molecule `CN1C2CCC1c1c(n(CCC(=O)N3CC[S+]([O-])CC3)c3ccc(Cl)cc13)C2` (stereo not drawn) [Compound 10], the inhibition at 1 µM was -7% in test [1], -2% in test [2], -5% in test [3] and -13% in test [4].

For `CN1[C@@H]2CC[C@H]1c1c(n(CCc3ccc(F)cc3)c3ccc(F)cc13)C2` [Compound 94, (+)-(7S,10R)-2-Fluoro-5-(4-fluorophenethyl)-11-methyl-5,6,7,8,9,10-hexahydro-7,10-iminocyclohept[b]indole], the inhibition at 1 µM in test [1] was 56%; in test [2], 14%; in test [3], 81%; in test [4] it was 21%.

For the molecule `CN1[C@H]2CC[C@@H]1c1c(n(CCc3ccc(F)cc3)c3ccc(F)cc13)C2` [Compound 95, (−)-(7R,10S)-2-Fluoro-5-(4-fluorophenethyl)-11-methyl-5,6,7,8,9,10-hexahydro-7,10-iminocyclohept[b]indole], the inhibition at 1 µM was 65% in test [1], 50% in test [2], 57% in test [3] and 41% in test [4].

The inhibition is the drop in the measured response relative to a control, in per cent.

The record behind these values is patent publication US8546381B2, “Bridged heterocyclic compounds and methods of use” (Medivation Technologies, Inc., priority 2008, dated 2013).
